Results from patent US8802597B2, “Herbicidal pyrimidines” (E I du Pont de Nemours and Company, priority 2003, dated 2014).

What was measured:
Format in all cases: in vivo
kochia (Kochia scoparia) [1] = test: Test G pre/postemergence
Outline: (§1)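 Visual scores from 0 (no effect) to 100 (complete control) were assigned relative to untreated controls 12 to 21 days after treatment. Compounds, formulated in a non-phytotoxic solvent mixture with surfactant, were applied preemergence to planted seed or postemergence to plants at the 1- to 4-leaf stage (2 to 18 cm).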

[2] = tested on: common sowthistle (Sonchus oleraceous); test: Test G pre/postemergence
Outline: as §1

[3] = tested on: common groundsel (Senecio vulgaris); test: Test G pre/postemergence
Outline: as §1

[4] = tested on: spanishneedles (Bidens bipinnata); test: Test G pre/postemergence
Outline: as §1

[5] = tested on: common purslane (Portulaca oleracea); test: Test G pre/postemergence
Outline: as §1

[6] = tested on: wild buckwheat (Polygonum convolvulus); test: Test D pre/postemergence; conditions: scale 0 to 100 (100 = complete control)
Outline: (§2)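 Pre: seeds sown, then treated. Post: plants at 1- to 4-leaf stage (2 to 18 cm) sprayed at the same time. Chemicals formulated in a non-phytotoxic solvent mixture including surfactant. After 15 to 25 days under controlled growth conditions, response rated visually from 0 (no effect) to 100 (complete control).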

kochia (Kochia scoparia) [7] = test: Test D pre/postemergence; conditions: scale 0 to 100 (100 = complete control)
Outline: as §2

[8] = tested on: Russian thistle (Salsola kali); test: Test D pre/postemergence; conditions: scale 0 to 100 (100 = complete control)
Outline: as §2

[9] = tested on: wild mustard (Sinapis arvensis); test: Test D pre/postemergence; conditions: scale 0 to 100 (100 = complete control)
Outline: as §2

[10] = tested on: common chickweed (Stellaria media); test: Test D pre/postemergence; conditions: scale 0 to 100 (100 = complete control)
Outline: as §2

[11] = tested on: wheat (Triticum aestivum); test: Test D pre/postemergence; conditions: scale 0 to 100 (100 = complete control)
Outline: as §2

[12] = tested on: lambsquarters (Chenopodium album); test: Test D pre/postemergence; conditions: scale 0 to 100 (100 = complete control)
Outline: as §2

[13] = Postemergence, 375 g ai/ha, scale 0 to 100
[14] = Preemergence, 62 g ai/ha, scale 0-100
[15] = Preemergence, 125 g ai/ha, scale 0-100
[16] = Preemergence, 250 g ai/ha, scale 0-100
[17] = Preemergence, 500 g ai/ha, scale 0-100
[18] = Preemergence, 500 g ai/ha, scale 0 to 100
[19] = Postemergence, 250 g ai/ha, scale 0 to 100
[20] = Postemergence, 500 g ai/ha, scale 0 to 100
[21] = Postemergence, 62 g ai/ha, scale 0 to 100
[22] = Postemergence, 125 g ai/ha, scale 0 to 100

Which results are given for `CCOC(=O)c1nc(C2CC2)nc(N)c1Br` [Compound 1, ethyl 6-amino-5-bromo-2-cyclopropyl-4-pyrimidinecarboxylate]?
Plant response rating, Kochia (kochia (Kochia scoparia) [1]; [13]): 95; Plant response rating, Kochia (kochia (Kochia scoparia) [1]; [14]): 100; Plant response rating, Kochia (kochia (Kochia scoparia) [1]; [15]): 100; Plant response rating, Kochia (kochia (Kochia scoparia) [1]; [16]): 100; Plant response rating, Kochia (kochia (Kochia scoparia) [1]; [17]): 100; Plant response rating, Kochia (kochia (Kochia scoparia) [1]; [18]): 100; Plant response rating, Sowthistle [2, 19]: 95; Plant response rating, Sowthistle [2, 20]: 100; Plant response rating, Sowthistle [2, 21]: 95; Plant response rating, Sowthistle [2, 22]: 95; Plant response rating, Sowthistle [2, 13]: 95; Plant response rating, Sowthistle [2, 14]: 95; Plant response rating, Sowthistle [2, 15]: 100; Plant response rating, Sowthistle [2, 16]: 100; Plant response rating, Sowthistle [2, 17]: 100; Plant response rating, Sowthistle [2, 18]: 100; Plant response rating, Groundsel [3, 19]: 95; Plant response rating, Groundsel [3, 20]: 100; Plant response rating, Groundsel [3, 21]: 60; Plant response rating, Groundsel [3, 22]: 95; Plant response rating, Groundsel [3, 13]: 100; Plant response rating, Groundsel [3, 14]: 60; Plant response rating, Groundsel [3, 15]: 100; Plant response rating, Groundsel [3, 16]: 100; Plant response rating, Groundsel [3, 18]: 100; Plant response rating, Groundsel ([3]; Preemergence, 375 g ai/ha, scale 0 to 100): 100; Plant response rating, Spanishneedles [4, 19]: 95; Plant response rating, Spanishneedles [4, 20]: 95; Plant response rating, Spanishneedles [4, 21]: 80; Plant response rating, Spanishneedles [4, 22]: 95; Plant response rating, Spanishneedles [4, 13]: 95; Plant response rating, Spanishneedles [4, 14]: 100; Plant response rating, Spanishneedles [4, 15]: 100; Plant response rating, Spanishneedles [4, 16]: 100; Plant response rating, Spanishneedles [4, 17]: 100; Plant response rating, Spanishneedles [4, 18]: 100; Plant response rating, Purslane [5, 19]: 100; Plant response rating, Purslane [5, 20]: 100; Plant response rating, Purslane [5, 21]: 80; Plant response rating, Purslane [5, 22]: 100; Plant response rating, Purslane [5, 13]: 100; Plant response rating, Purslane [5, 14]: 10; Plant response rating, Purslane [5, 15]: 60; Plant response rating, Purslane [5, 16]: 95; Plant response rating, Purslane [5, 17]: 100; Plant response rating, Purslane [5, 18]: 100; Plant response rating, Buckwheat, Wild ([6]; Postemergence, 16 g ai/ha): 50; Plant response rating, Buckwheat, Wild ([6]; Postemergence, 31 g ai/ha): 80; Plant response rating, Buckwheat, Wild ([6]; Postemergence, 62 g ai/ha): 80; Plant response rating, Buckwheat, Wild ([6]; Postemergence, 125 g ai/ha): 80; Plant response rating, Buckwheat, Wild ([6]; Preemergence, 16 g ai/ha): 45; Plant response rating, Buckwheat, Wild ([6]; Preemergence, 31 g ai/ha): 60; Plant response rating, Buckwheat, Wild ([6]; Preemergence, 62 g ai/ha): 70; Plant response rating, Buckwheat, Wild ([6]; Preemergence, 125 g ai/ha): 75; Plant response rating, Kochia (kochia (Kochia scoparia) [7]; Postemergence, 16 g ai/ha): 85; Plant response rating, Kochia (kochia (Kochia scoparia) [7]; Postemergence, 31 g ai/ha): 100; Plant response rating, Kochia (kochia (Kochia scoparia) [7]; Postemergence, 62 g ai/ha): 100; Plant response rating, Kochia (kochia (Kochia scoparia) [7]; Postemergence, 125 g ai/ha): 100; Plant response rating, Kochia (kochia (Kochia scoparia) [7]; Preemergence, 16 g ai/ha): 65; Plant response rating, Kochia (kochia (Kochia scoparia) [7]; Preemergence, 31 g ai/ha): 75; Plant response rating, Kochia (kochia (Kochia scoparia) [7]; Preemergence, 62 g ai/ha): 100; Plant response rating, Kochia (kochia (Kochia scoparia) [7]; Preemergence, 125 g ai/ha): 100; Plant response rating, Russian Thistle ([8]; Postemergence, 16 g ai/ha): 45; Plant response rating, Russian Thistle ([8]; Postemergence, 31 g ai/ha): 65; Plant response rating, Russian Thistle ([8]; Postemergence, 62 g ai/ha): 85; Plant response rating, Russian Thistle ([8]; Postemergence, 125 g ai/ha): 100; Plant response rating, Russian Thistle ([8]; Preemergence, 16 g ai/ha): 100; Plant response rating, Russian Thistle ([8]; Preemergence, 31 g ai/ha): 100; Plant response rating, Russian Thistle ([8]; Preemergence, 62 g ai/ha): 100; Plant response rating, Russian Thistle ([8]; Preemergence, 125 g ai/ha): 100; Plant response rating, Mustard, Wild ([9]; Postemergence, 16 g ai/ha): 60; Plant response rating, Mustard, Wild ([9]; Postemergence, 31 g ai/ha): 70; Plant response rating, Mustard, Wild ([9]; Postemergence, 62 g ai/ha): 70; Plant response rating, Mustard, Wild ([9]; Postemergence, 125 g ai/ha): 75; Plant response rating, Mustard, Wild ([9]; Preemergence, 16 g ai/ha): 50; Plant response rating, Mustard, Wild ([9]; Preemergence, 31 g ai/ha): 65; Plant response rating, Mustard, Wild ([9]; Preemergence, 62 g ai/ha): 70; Plant response rating, Mustard, Wild ([9]; Preemergence, 125 g ai/ha): 90; Plant response rating, Chickweed ([10]; Postemergence, 16 g ai/ha): 65; Plant response rating, Chickweed ([10]; Postemergence, 31 g ai/ha): 65; Plant response rating, Chickweed ([10]; Postemergence, 62 g ai/ha): 65; Plant response rating, Chickweed ([10]; Postemergence, 125 g ai/ha): 85; Plant response rating, Chickweed ([10]; Preemergence, 16 g ai/ha): 60; Plant response rating, Chickweed ([10]; Preemergence, 31 g ai/ha): 65; Plant response rating, Chickweed ([10]; Preemergence, 62 g ai/ha): 70; Plant response rating, Chickweed ([10]; Preemergence, 125 g ai/ha): 75; Plant response rating, Wheat ([11]; Postemergence, 16 g ai/ha): 40; Plant response rating, Wheat ([11]; Postemergence, 31 g ai/ha): 80; Plant response rating, Wheat ([11]; Postemergence, 62 g ai/ha): 90; Plant response rating, Wheat ([11]; Postemergence, 125 g ai/ha): 100; Plant response rating, Wheat ([11]; Preemergence, 16 g ai/ha): 35; Plant response rating, Wheat ([11]; Preemergence, 31 g ai/ha): 70; Plant response rating, Wheat ([11]; Preemergence, 62 g ai/ha): 70; Plant response rating, Wheat ([11]; Preemergence, 125 g ai/ha): 70; Plant response rating, Lambsquarters ([12]; Postemergence, 16 g ai/ha): 95; Plant response rating, Lambsquarters ([12]; Postemergence, 31 g ai/ha): 95; Plant response rating, Lambsquarters ([12]; Postemergence, 62 g ai/ha): 100; Plant response rating, Lambsquarters ([12]; Postemergence, 125 g ai/ha): 100; Plant response rating, Lambsquarters ([12]; Preemergence, 16 g ai/ha): 65; Plant response rating, Lambsquarters ([12]; Preemergence, 31 g ai/ha): 75; Plant response rating, Lambsquarters ([12]; Preemergence, 62 g ai/ha): 85; Plant response rating, Lambsquarters ([12]; Preemergence, 125 g ai/ha): 100
